In PubChem BioAssay (NCI):
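1) Cells in 96-well plates. 2) Compound, 48 h, 5 concentrations. 3) Linear interpolation between surrounding doses. 4) Unreached endpoint = highest concentration. TGI is the concentration that stops growth completely.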

Key:
Test in all cases: NCI tumour cell line growth inhibition, 48 h
[1] = tested on: 786-0 renal
[2] = tested on: A498 renal
[3] = tested on: A549 NSCLC
[4] = tested on: ACHN renal
[5] = tested on: BT-549 breast
[6] = tested on: CAKI-1 renal
[7] = tested on: CCRF-CEM leukemia
[8] = tested on: COLO 205 colon
[9] = tested on: DU-145 prostate
[10] = tested on: EKVX NSCLC
[11] = tested on: HCC-2998 colon
[12] = tested on: HCT-116 colon
[13] = tested on: HCT-15 colon
[14] = tested on: HL-60(TB) leukemia
[15] = tested on: HOP-62 NSCLC
[16] = tested on: HS 578T breast
[17] = tested on: HT29 colon
[18] = tested on: IGROV1 ovarian
[19] = tested on: K-562 leukemia
[20] = tested on: KM12 colon
[21] = tested on: M14 melanoma
[22] = tested on: MALME-3M melanoma
[23] = tested on: MCF7 breast
[24] = tested on: MDA-MB-231 breast
[25] = tested on: MDA-N
[26] = tested on: MOLT-4 leukemia
[27] = tested on: NCI-H226 lung
[28] = tested on: NCI-H23 lung
[29] = tested on: NCI-H460 lung
[30] = tested on: NCI-H522 lung
[31] = tested on: NCI/ADR-RES ovarian
[32] = tested on: OVCAR-3 ovarian
[33] = tested on: OVCAR-4 ovarian
[34] = tested on: OVCAR-5 ovarian
[35] = tested on: OVCAR-8 ovarian
[36] = tested on: PC-3 prostate
[37] = tested on: RXF 393 renal
[38] = tested on: SF-268 CNS
[39] = tested on: SF-295 CNS
[40] = tested on: SF-539 CNS
[41] = tested on: SK-MEL-2 melanoma
[42] = tested on: SK-MEL-28 melanoma
[43] = tested on: SK-MEL-5 melanoma
[44] = tested on: SK-OV-3 ovarian
[45] = tested on: SN12C renal
[46] = tested on: SNB-19 CNS
[47] = tested on: SNB-75 CNS
[48] = tested on: SR leukemia
[49] = tested on: SW-620 colon
[50] = tested on: T-47D breast
[51] = tested on: TK-10 renal
[52] = tested on: U251 CNS
[53] = tested on: UACC-257 melanoma
[54] = tested on: UACC-62 melanoma
[55] = tested on: UO-31 renal
[56] = tested on: HOP-92 NSCLC
[57] = tested on: LOX IMVI melanoma
[58] = tested on: MDA-MB-435
[59] = tested on: RPMI-8226 leukemia

## O=NNc1ccc(Sc2ccc3ccccc3c2)cn1
[1]
  TGI: > 100 µM
[2]
  TGI: > 100 µM
[3]
  TGI: > 100 µM
[4]
  TGI: > 100 µM
[5]
  TGI: 77.1 µM
[6]
  TGI: > 100 µM
[7]
  TGI: 59.6 µM
[8]
  TGI: > 100 µM
[9]
  TGI: 79.7 µM
[10]
  TGI: > 100 µM
[11]
  TGI: 31.2 µM
[12]
  TGI: 40.6 µM
[13]
  TGI: 60 µM
[14]
  TGI: 24.9 µM
[15]
  TGI: 50.2 µM
[16]
  TGI: > 100 µM
[17]
  TGI: > 100 µM
[18]
  TGI: > 100 µM
[19]
  TGI: > 100 µM
[20]
  TGI: > 100 µM
[21]
  TGI: 60.2 µM
[22]
  TGI: 35.6 µM
[23]
  TGI: > 100 µM
[24]
  TGI: > 100 µM
[25]
  TGI: > 100 µM
[26]
  TGI: > 100 µM
[27]
  TGI: > 100 µM
[28]
  TGI: > 100 µM
[29]
  TGI: > 100 µM
[30]
  TGI: 54 µM
[31]
  TGI: 89.4 µM
[32]
  TGI: > 100 µM
[33]
  TGI: > 100 µM
[34]
  TGI: > 100 µM
[35]
  TGI: > 100 µM
[36]
  TGI: > 100 µM
[37]
  TGI: 4.12 µM
[38]
  TGI: > 100 µM
[39]
  TGI: > 100 µM
[40]
  TGI: > 100 µM
[41]
  TGI: 43.4 µM
[42]
  TGI: > 100 µM
[43]
  TGI: 39.1 µM
[44]
  TGI: > 100 µM
[45]
  TGI: > 100 µM
[46]
  TGI: > 100 µM
[47]
  TGI: > 100 µM
[48]
  TGI: > 100 µM
[49]
  TGI: > 100 µM
[50]
  TGI: 77.9 µM
[51]
  TGI: > 100 µM
[52]
  TGI: > 100 µM
[53]
  TGI: > 100 µM
[54]
  TGI: > 100 µM
[55]
  TGI: > 100 µM

## CC(=O)N1N=C(c2ccccc2Nc2ccccc2C2=NN(C(C)=O)C(c3ccccc3)O2)OC1c1ccccc1 (centres undefined)
[1]
  TGI: > 100 µM
[3]
  TGI: > 100 µM
[4]
  TGI: > 100 µM
[5]
  TGI: > 100 µM
[8]
  TGI: > 100 µM
[9]
  TGI: > 100 µM
[10]
  TGI: > 100 µM
[11]
  TGI: > 100 µM
[12]
  TGI: > 100 µM
[13]
  TGI: > 100 µM
[15]
  TGI: > 100 µM
[56]
  TGI: > 100 µM
[17]
  TGI: > 100 µM
[18]
  TGI: > 100 µM
[19]
  TGI: > 100 µM
[57]
  TGI: > 100 µM
[21]
  TGI: > 100 µM
[22]
  TGI: > 100 µM
[23]
  TGI: > 100 µM
[24]
  TGI: > 100 µM
[58]
  TGI: > 100 µM
[25]
  TGI: > 100 µM
[26]
  TGI: > 100 µM
[27]
  TGI: > 100 µM
[28]
  TGI: > 100 µM
[29]
  TGI: > 100 µM
[30]
  TGI: > 100 µM
[31]
  TGI: > 100 µM
[32]
  TGI: > 100 µM
[33]
  TGI: > 100 µM
[34]
  TGI: > 100 µM
[35]
  TGI: > 100 µM
[36]
  TGI: > 100 µM
[59]
  TGI: > 100 µM
[37]
  TGI: > 100 µM
[39]
  TGI: > 100 µM
[41]
  TGI: > 100 µM
[42]
  TGI: > 100 µM
[43]
  TGI: > 100 µM
[44]
  TGI: > 100 µM
[45]
  TGI: > 100 µM
[46]
  TGI: > 100 µM
[48]
  TGI: > 100 µM
[49]
  TGI: > 100 µM
[50]
  TGI: > 100 µM
[51]
  TGI: > 100 µM
[52]
  TGI: > 100 µM
[54]
  TGI: > 100 µM
[55]
  TGI: > 100 µM
